Assay results reported in ChEMBL document CHEMBL3400074, “Development of 2-amino-5-phenylthiophene-3-carboxamide derivatives as novel inhibitors of Mycobacterium tuberculosis DNA GyrB domain” (Bioorg Med Chem, 2015).

Columns and labels:
[1] = Inhibition of Mycobacterium tuberculosis DNA GyrA/B heterotetramer assessed as inhibition of pBR322 supercoiling after 30 mins by gel electrophoresis
[2] = target: DNA gyrase subunit B (Mycobacterium smegmatis, UniProt P0C559); assay: Inhibition of Mycobacterium smegmatis DNA GyrB domain assessed as inhibition of inorganic phosphate release after 100 mins at room temperature by ATPase assay; design: species or system Mycolicibacterium smegmatis
[3] = Cytotoxicity against mouse RAW264.7 cells at 100 uM after 48 hrs by MTT assay; type: cell-based; details: read-out: INH
[4] = target: DNA gyrase subunit B (Mycobacterium smegmatis) (UniProt P0C559); assay: Binding affinity to Mycobacterium smegmatis DNA GyrB domain assessed as change in melting temperature by differential scanning fluorimetry; details: Mycolicibacterium smegmatis
DNA gyrase subunit B (Mycobacterium smegmatis), sequence (P0C559 2-675 limits assumed): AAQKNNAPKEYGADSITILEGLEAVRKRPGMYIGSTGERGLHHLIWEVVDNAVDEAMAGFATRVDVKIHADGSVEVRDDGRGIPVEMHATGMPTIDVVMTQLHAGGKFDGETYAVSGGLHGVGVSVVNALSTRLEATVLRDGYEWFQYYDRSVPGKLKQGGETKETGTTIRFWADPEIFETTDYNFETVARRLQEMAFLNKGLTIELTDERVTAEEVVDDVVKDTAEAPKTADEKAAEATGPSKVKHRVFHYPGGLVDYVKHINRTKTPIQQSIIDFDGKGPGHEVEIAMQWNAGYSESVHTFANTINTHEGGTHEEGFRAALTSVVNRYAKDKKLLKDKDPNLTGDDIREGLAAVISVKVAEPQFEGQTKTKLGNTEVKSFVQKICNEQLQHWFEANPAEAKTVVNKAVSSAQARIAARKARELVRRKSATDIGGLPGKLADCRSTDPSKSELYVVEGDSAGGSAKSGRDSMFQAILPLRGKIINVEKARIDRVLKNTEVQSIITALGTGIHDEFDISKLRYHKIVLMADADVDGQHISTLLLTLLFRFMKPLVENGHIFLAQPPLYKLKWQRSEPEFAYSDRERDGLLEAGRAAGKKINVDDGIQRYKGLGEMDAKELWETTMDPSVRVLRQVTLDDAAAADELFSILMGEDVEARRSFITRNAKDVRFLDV

DNA gyrase subunit B, sequence (P0C559 whole entry, the tested form may be a part): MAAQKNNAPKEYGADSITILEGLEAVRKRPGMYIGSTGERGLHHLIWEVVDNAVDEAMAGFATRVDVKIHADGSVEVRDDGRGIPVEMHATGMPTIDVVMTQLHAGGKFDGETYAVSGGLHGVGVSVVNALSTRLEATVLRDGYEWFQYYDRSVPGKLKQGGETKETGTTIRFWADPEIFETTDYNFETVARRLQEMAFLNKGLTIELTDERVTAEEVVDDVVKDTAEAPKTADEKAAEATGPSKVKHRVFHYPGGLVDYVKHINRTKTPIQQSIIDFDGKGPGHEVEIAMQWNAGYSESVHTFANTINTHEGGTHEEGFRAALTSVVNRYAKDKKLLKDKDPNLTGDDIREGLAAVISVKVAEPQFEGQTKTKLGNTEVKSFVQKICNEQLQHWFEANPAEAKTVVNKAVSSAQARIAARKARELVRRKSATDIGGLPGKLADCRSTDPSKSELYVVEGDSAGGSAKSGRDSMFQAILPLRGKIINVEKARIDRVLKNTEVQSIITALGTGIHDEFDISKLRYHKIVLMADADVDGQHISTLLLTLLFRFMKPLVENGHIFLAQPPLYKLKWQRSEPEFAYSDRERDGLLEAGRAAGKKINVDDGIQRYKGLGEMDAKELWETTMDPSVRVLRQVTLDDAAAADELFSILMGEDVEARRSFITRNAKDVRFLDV

With `NC(=O)c1cc(-c2ccccc2)sc1NC(=O)C1CCCCC1` the IC50 [1] was 9.83 µM, the IC50 [2] was 10.2 µM and the cytotoxicity at 48 h, 100 µM [3] was 39%.

Molecule `NC(=O)c1cc(-c2ccccc2)sc1NC(=O)c1cc2ccccc2[nH]1` has an IC50 [1] of 18.2 µM, an IC50 [2] of 22 µM and a cytotoxicity at 48 h, 100 µM [3] of 36.2%.

`CCCC(=O)Nc1sc(-c2ccccc2)cc1C(N)=O` gave an IC50 [1] of 3.14 µM, an IC50 [2] of 3.57 µM and a cytotoxicity at 48 h, 100 µM [3] of 39.8%.

`NC(=O)c1cc(-c2ccccc2)sc1NC(=S)Nc1ccc([N+](=O)[O-])cc1` gave an IC50 [1] greater than 25 µM, an IC50 [2] of 32.5 µM and a cytotoxicity at 48 h, 100 µM [3] of 40.3%.

For `Cc1ccc(NC(=O)Nc2sc(-c3ccccc3)cc2C(N)=O)cc1`, the IC50 [1] was greater than 25 µM, the IC50 [2] was 24 µM and the cytotoxicity at 48 h, 100 µM [3] was 37.6%.

With `CC(=O)Nc1sc(-c2ccccc2)cc1C(N)=O` the IC50 [1] was 11.8 µM, the IC50 [2] was 19.1 µM and the cytotoxicity at 48 h, 100 µM [3] was 37.5%.

In the case of `NC(=O)c1cc(-c2ccccc2)sc1NC(=O)Nc1ccc(Cl)cc1`, the IC50 [1] is reported as 2.97 µM, the IC50 [2] is reported as 3.14 µM and the cytotoxicity at 48 h, 100 µM [3] is reported as 38.2%.

Molecule `NC(=O)c1cc(-c2ccccc2)sc1NC(=O)c1cccc2ccccc12` has an IC50 [1] greater than 25 µM, an IC50 [2] of 28.6 µM and a cytotoxicity at 48 h, 100 µM [3] of 36.8%.

`NC(=O)c1cc(-c2ccccc2)sc1NC(=S)Nc1ccc(F)cc1` showed an IC50 [1] greater than 25 µM, an IC50 [2] of 48.9 µM and a cytotoxicity at 48 h, 100 µM [3] of 32.1%.

For `NC(=O)c1cc(-c2ccccc2)sc1NC(=O)Nc1ccc(F)cc1`, the IC50 [1] was 9.88 µM, the IC50 [2] was 11.5 µM and the cytotoxicity at 48 h, 100 µM [3] was 33.7%.

`Cc1ccc(NC(=S)Nc2sc(-c3ccccc3)cc2C(N)=O)cc1` showed an IC50 [1] of 2.97 µM, an IC50 [2] of 2.46 µM and a cytotoxicity at 48 h, 100 µM [3] of 34.8%.

In the case of `NC(=O)c1cc(-c2ccccc2)sc1NC(=S)Nc1ccc(Br)cc1`, the IC50 [1] is reported as 9.63 µM, the IC50 [2] is reported as 10.9 µM and the cytotoxicity at 48 h, 100 µM [3] is reported as 35.6%.

Work on `NC(=O)c1cc(-c2ccccc2)sc1NC(=O)Nc1ccc([N+](=O)[O-])cc1` yielded an IC50 [1] of 10.9 µM, an IC50 [2] of 12.8 µM and a cytotoxicity at 48 h, 100 µM [3] of 37.3%.

`NC(=O)c1cc(-c2ccccc2)sc1NC(=O)c1ccc(Cl)cc1` showed an IC50 [1] of 5.82 µM, an IC50 [2] of 6.69 µM and a cytotoxicity at 48 h, 100 µM [3] of 38.5%.

`NC(=O)c1cc(-c2ccccc2)sc1NC(=S)Nc1ccccc1` showed an IC50 [1] greater than 25 µM, an IC50 [2] of 70.3 µM and a cytotoxicity at 48 h, 100 µM [3] of 32.8%.

For `NC(=O)c1cc(-c2ccccc2)sc1NC(=O)c1ccccc1`, the IC50 [1] was 0.76 µM, the ΔTm [4] was 2.5 °C and the IC50 [2] was 0.86 µM. It also gave a cytotoxicity at 48 h, 100 µM [3] of 37.6%.

With `NC(=O)c1cc(-c2ccccc2)sc1NC(=O)Nc1ccccc1` the IC50 [1] was 1.32 µM, the IC50 [2] was 1.83 µM and the cytotoxicity at 48 h, 100 µM [3] was 37.3%.

In the case of `NC(=O)c1cc(-c2ccccc2)sc1NC(=O)NCc1ccccc1`, the IC50 [1] is reported as 8.89 µM, the IC50 [2] is reported as 10.8 µM and the cytotoxicity at 48 h, 100 µM [3] is reported as 33%.

With `NC(=O)c1cc(-c2ccccc2)sc1NC(=O)c1ccc(Oc2ccccc2)cc1` the IC50 [1] was 8.85 µM, the IC50 [2] was 17.3 µM and the cytotoxicity at 48 h, 100 µM [3] was 35.8%.

In the case of `NC(=O)c1cc(-c2ccccc2)sc1NC(=O)c1cccs1`, the IC50 [1] is reported as 1.16 µM and the IC50 [2] is reported as 1.5 µM.

`NC(=O)c1cc(-c2ccccc2)sc1NC(=O)c1ccc([N+](=O)[O-])cc1` showed an IC50 [1] of 6.77 µM, an IC50 [2] of 8.91 µM and a cytotoxicity at 48 h, 100 µM [3] of 35.9%.

`CC(C)NC(=O)Nc1sc(-c2ccccc2)cc1C(N)=O` gave an IC50 [1] of 6.17 µM, an IC50 [2] of 6.47 µM and a cytotoxicity at 48 h, 100 µM [3] of 36.1%.

For `NC(=O)c1cc(-c2ccccc2)sc1NC(=O)C1CCCC1`, the IC50 [1] was greater than 25 µM, the IC50 [2] was 42.2 µM and the cytotoxicity at 48 h, 100 µM [3] was 39.7%.

In the case of `CCC(=O)Nc1sc(-c2ccccc2)cc1C(N)=O`, the IC50 [1] is reported as 5.62 µM, the IC50 [2] is reported as 11.8 µM and the cytotoxicity at 48 h, 100 µM [3] is reported as 39.4%.

`CO[C@@H]1[C@@H](OC(N)=O)[C@@H](O)[C@H](Oc2ccc3c(O)c(NC(=O)c4ccc(O)c(CC=C(C)C)c4)c(=O)oc3c2C)OC1(C)C` [NOVOBIOCIN] gave a cytotoxicity at 48 h, 100 µM [3] of 81.7%.

In the case of `NC(=O)c1cc(-c2ccccc2)sc1NC(=O)Nc1ccc(Br)cc1`, the IC50 [1] is reported as greater than 25 µM, the IC50 [2] is reported as 12.2 µM and the cytotoxicity at 48 h, 100 µM [3] is reported as 37.6%.

With `NC(=O)c1cc(-c2ccccc2)sc1NC(=S)NCc1ccccc1` the IC50 [1] was 17.8 µM, the IC50 [2] was 28.3 µM and the cytotoxicity at 48 h, 100 µM [3] was 36.1%.

Work on `NC(=O)c1cc(-c2ccccc2)sc1NC(=S)Nc1ccc(Cl)cc1` yielded an IC50 [1] greater than 25 µM, an IC50 [2] of 71.4 µM and a cytotoxicity at 48 h, 100 µM [3] of 36.1%.

In the case of `CC(C)NC(=S)Nc1sc(-c2ccccc2)cc1C(N)=O`, the IC50 [1] is reported as 9.25 µM, the IC50 [2] is reported as 16.2 µM and the cytotoxicity at 48 h, 100 µM [3] is reported as 35.5%.

With `NC(=O)c1cc(-c2ccccc2)sc1NC(=O)c1cnccn1` the IC50 [1] was greater than 25 µM, the IC50 [2] was 18.4 µM and the cytotoxicity at 48 h, 100 µM [3] was 34.3%.
